# Experimental data published in US11168102B1, “Bicyclic heteroaryl compounds and uses thereof” (Revolution Medicines, Inc., priority 2019, dated 2021).
# Test system: cellular pERK in PC-9 cells (EGFR Ex19Del)
# Assay: Potency assay: pERK (AlphaLISA SureFire Ultra p-ERK1/2) in PC-9 cells
# Assay type: cell-based
# Settings: Homo sapiens, PC-9, 1 h, PC-9 cells (EGFR Ex19Del), 1 hour incubation, AlphaLISA SureFire Ultra p-ERK1/2; read-out: SOS1 pERK IC50
row,IC50 [nM],SMILES
1,5.79,CO[C@]1(c2cc3c(N[C@H](C)c4cccc(C(F)F)c4F)ncnc3n(C)c2=O)CCN(C(C)=O)[C@H](C)C1 [Example 32-51]
2,396,C[C@@H](Nc1ncnc2c1cc(C(=O)N1CC3COCC31)c(=O)n2C)c1cccc(C(F)F)c1F (some centres unmarked) [Example 26-5]
3,119,C[C@@H](Nc1ncnc2c1cc(-c1ccncc1)c(=O)n2C)c1cccc(C(F)F)c1F [Example 21-14]
4,947,COC1(c2cc3c(N[C@H](C)c4cccc(C(F)F)c4F)ncnc3n(C)c2=O)C[C@@H]2C[C@H]1CN2C(C)=O (some centres unmarked) [Example 32-18]
5,81.1,C[C@@H](Nc1ncnc2c1cc(C1(F)CCC3(CC1)CS(=O)(=O)C3)c(=O)n2C)c1cccc(C(F)F)c1F [Example 29-7]
6,24.1,COC1(c2cc3c(N[C@H](C)c4cccc(C(F)F)c4F)ncnc3n(C)c2=O)CCC2(CC1)CS(=O)(=NC1CC1)C2 (some centres unmarked) [Example 68-1]
7,220,COCCN1CCN(C(=O)c2cc3c(N[C@H](C)c4cccc(C(F)F)c4F)ncnc3n(C)c2=O)CC1 [Example 26-48]
8,1130,C[C@@H](Nc1ncnc2c1cc(C(=O)N1CC3(CCCO3)C1)c(=O)n2C)c1cccc(C(F)F)c1F [Example 26-13]
9,10.1,CO[C@]1(c2cc3c(N[C@H](C)c4cccc(C(F)F)c4F)ncnc3n(C)c2=O)CCN(C(C)=O)[C@@H](C)C1 [Example 32-31]
10,39.1,COC1(c2cc3c(N[C@H](C)c4cccc(C(F)F)c4F)ncnc3n(C)c2=O)CCN(S(C)(=O)=O)C1 (some centres unmarked) [Example 32-6]
11,86.9,CC(=O)N1CCCC(C#N)(c2cc3c(N[C@H](C)c4cccc(C(F)F)c4F)ncnc3n(C)c2=O)CC1 (some centres unmarked) [Example 36-9]
12,486,C[C@@H](Nc1ncnc2c1cc(-c1ccccc1)c(=O)n2C)c1cccc(C(F)F)c1F [Example 21-13]
13,852,"Cc1nc(N[C@H](C)c2cccc(C(F)F)c2F)c2cc(CN3CCOCC3)c(=O)n(C)c2n1 [Example 27, 4-{[(1R)-1-[3-(difluoromethyl)-2-fluorophenyl]ethyl]amino}-2,8-dimethyl-6-[(morpholin-4-yl)meth-yl]-7H,8H-pyrido[2,3-d]pyrimidin-7-one]"
14,2760,"C[C@@H](Nc1ncnc2c1cc(Sc1ccccc1)c(=O)n2C)c1cccc(C(F)F)c1F [Example 30, 4-{[(1R)-1-[3-(difluoromethyl)-2-fluorophenyl]ethyl]amino}-8-methyl-6-(phenylsulfanyl)-7H,8H-pyrido[2,3-d]pyrimidin-7-one]"
15,35.5,C[C@@H](Nc1ncnc2c1cc(C1(F)CCS(=N)(=O)CC1)c(=O)n2C)c1cccc(C(F)F)c1F (some centres unmarked) [Example 29-14]
16,199,CO[C@@]1(c2cc3c(N[C@H](C)c4cccc(C(F)F)c4F)ncnc3n(C)c2=O)CCN(C(C)=O)C(C)(C)C1 [Example 32-53]
17,169,CC(=O)N1CC(c2cc3c(N[C@H](C)c4cccc(C(F)F)c4F)ncnc3n(C)c2=O)C1 [Example 33-11]
18,71.4,COC1(c2cc3c(N[C@H](C)c4cccc(C(F)F)c4F)ncnc3n(C)c2=O)CN(C(C)=O)C1 [Example 32-7]
19,16.3,COC1(c2cc3c(N[C@H](C)c4cccc(C(F)F)c4F)ncnc3n(C)c2=O)CCN(C(C)=O)C1 (some centres unmarked) [Example 32-9]
20,10.8,CO[C@]1(c2cc3c(N[C@H](C)c4cccc(C(F)F)c4F)nc(C)nc3n(C)c2=O)CCN(C(C)=O)C1 [Example 32-62]
21,470,C[C@@H](Nc1ncnc2c1cc(C1(F)CN(S(C)(=O)=O)C1)c(=O)n2C)c1cccc(C(F)F)c1F [Example 29-6]

row,IC50 [nM],SMILES
1,13.3,COC1(c2cc3c(N[C@H](C)c4cccc(C(F)F)c4F)nc(C)nc3n(C)c2=O)CCN(C(C)=O)C1 (some centres unmarked) [Example 32-58]
2,122,C[C@@H](Nc1ncnc2c1cc(C(=O)N1CCCC13COC3)c(=O)n2C)c1cccc(C(F)F)c1F [Example 26-14]
3,87.9,C[C@@H](Nc1ncnc2c1cc(C1CS(=O)(=O)C1)c(=O)n2C)c1cccc(C(F)F)c1F [Example 33-16]
4,568,Cc1nc(N[C@H](C)c2cccc(C(F)F)c2F)c2cc(C3CCNCC3)c(=O)n(C)c2n1 [Example 1-31]
5,53.2,C[C@@H](Nc1ncnc2c1cc(C1CCS(=O)(=O)CC1)c(=O)n2C)c1ccc(-c2ccccc2CN)s1 [Example 33-18]
6,401,C[C@@H](Nc1ncnc2c1cc(C(=O)N1CCN3CCOCC3C1)c(=O)n2C)c1cccc(C(F)F)c1F (some centres unmarked) [Example 26-44]
7,36.7,"COn1c(=O)c(C2CCS(=O)(=O)CC2)cc2c(N[C@H](C)c3cccc(C(F)F)c3F)ncnc21 [Example 53, 4-(4-{[(1R)-1-[3-(difluoromethyl)-2-fluorophenyl]ethyl]amino}-8-methoxy-7-oxo-7H,8H-pyrido[2,3-d]pyrimidin-6-yl)-1λ^6-thiane-1,1-dione]"
8,69.7,COC1(c2cc3c(N[C@H](C)c4cccc(C(F)F)c4F)ncnc3n(C)c2=O)CCN(S(C)(=O)=O)CC1 [Example 32-24]
9,40.2,COCCOC1(c2cc3c(N[C@H](C)c4cccc(C(F)F)c4F)ncnc3n(C)c2=O)CCS(=O)(=O)CC1 [Example 32-54]
10,106,CC(=O)N1CC=C(c2cc3c(N[C@H](C)c4cccc(C(F)(F)F)c4F)ncnc3n(C)c2=O)CC1 [Example 1-24]
11,186,COC1(c2cc3c(N[C@H](C)c4cccc(C(F)F)c4F)ncnc3n(C)c2=O)CN(C)C1 [Example 32-8]
12,32.6,CC(=O)N1CCC(O)(c2cc3c(N[C@H](C)c4cccc(C(F)F)c4F)ncnc3n(C)c2=O)CC1 [Example 28-8]
13,589,C[C@@H](Nc1ncnc2c1cc(C(=O)N1CC3CCC1CO3)c(=O)n2C)c1cccc(C(F)F)c1F (some centres unmarked) [Example 26-18]
14,423,C[C@@H](Nc1ncnc2c1cc(C(=O)N1CC3(COC3)C1)c(=O)n2C)c1cccc(C(F)F)c1F [Example 26-4]
15,461,CO[C@]1(c2cc3c(N[C@H](C)c4cccc(C(F)F)c4F)ncnc3n(C)c2=O)C[C@H](N(C)C(C)=O)C1 [Example 32-41]
16,285,C[C@@H](Nc1ncnc2c1cc(C1CCS(=O)(=O)CC1)c(=O)n2C)c1cccc(-c2ccccc2CN)c1 [Example 33-17]
17,28.6,COC1(c2cc3c(N[C@H](C)c4cccc(C(F)F)c4F)ncnc3n(C)c2=O)CCN(C(=O)C2COC2)CC1 [Example 32-12]
18,38.8,C[C@@H](Nc1ncnc2c1cc(C1(C#N)CCC3(CC1)CS(=O)(=O)C3)c(=O)n2C)c1cccc(C(F)F)c1F [Example 36-8]
19,44.3,C[C@@H](Nc1ncnc2c1cc(C1(F)CCS(=O)(=O)C1)c(=O)n2C)c1cccc(C(F)F)c1F (some centres unmarked) [Example 29-11]
20,122,"C[C@@H](Nc1ncnc2c1cc(C1CC[S+]([O-])CC1)c(=O)n2C)c1cccc(C(F)F)c1F (stereo partly drawn) [Example 25, (R)-4-((1-(3-(difluoromethyl)-2-fluorophenyl)ethyl)amino)-8-methyl-6-(1-oxidotetrahydro-2H-thiopyran-4-yl)pyrido[2,3-d]pyrimidin-7(8H)-one]"
21,87.9,C[C@@H](Nc1ncnc2c1cc(C1(OC3CC3)CCS(=O)(=O)CC1)c(=O)n2C)c1cccc(C(F)F)c1F [Example 32-27]

row,SMILES,IC50 [nM]
1,C[C@@H](Nc1ncnc2c1cc(C(=O)N1C3CCC1CN(C)C3)c(=O)n2C)c1cccc(C(F)F)c1F [Example 26-32],216
2,"C[C@@H](Nc1ncnc2c1cc(C1(F)CCS(=O)(=NC3CC3)CC1)c(=O)n2C)c1cccc(C(F)F)c1F (stereo partly drawn) [Example 56, 6-((1R,4r)-1-(cyclopropylimino)-4-fluoro-1-oxidohexahydro-1λ^6-thiopyran-4-yl)-4-(((R)-1-(3-(difluoromethyl)-2-fluorophenyl)ethyl)amino)-8-methylpyrido[2,3-d]pyrimidin-7(8H)-one]",57.2

# Same assay, conditions: Homo sapiens, PC-9, 1 h, read-out: SOS1 pERK IC50
row,SMILES,IC50 [nM]
1,COC1(c2cc3c(N[C@H](C)c4cccc(C(F)F)c4F)ncnc3n(C)c2=O)CCN(C)CC1 [Example 32-3],2240

# Same assay, conditions: PC-9 cells (EGFR Ex19Del), 1 hour incubation, AlphaLISA SureFire Ultra p-ERK1/2; read-out: SOS1 pERK IC50
row,IC50 [nM],SMILES
1,127,COC1(c2cc3c(N[C@H](C)c4cccc(C(F)F)c4F)ncnc3n(C)c2=O)CCS(=O)(=O)C(C)C1 (some centres unmarked) [Example 32-66]
2,86.2,"C[C@@H](Nc1ncnc2c1cc(C1(F)CCC3(CC1)CS(=O)(=NC1CC1)C3)c(=O)n2C)c1cccc(C(F)F)c1F (single isomer, unassigned) [Example 56-3]"
3,207,C[C@@H](Nc1ncnc2c1cc(C1(C#N)CCS(=O)(=O)C1)c(=O)n2C)c1cccc(C(F)F)c1F (some centres unmarked) [Example 36-14]
4,42.2,C[C@@H](Nc1ncnc2c1cc(C1(F)CCS(=N)(=O)CC1)c(=O)n2C)c1cccc(C(F)F)c1F (some centres unmarked) [Example 29-15]
5,26.3,"C[C@@H](Nc1ncnc2c1cc(C1CCS(=O)(=NC3CC3)CC1)c(=O)n2C)c1cccc(C(F)F)c1F (single isomer, unassigned) [Example 64-1]"
6,121,"C[C@@H](Nc1ncnc2c1cc(C1(F)CCC3(CC1)CS(=O)(=NC1CC1)C3)c(=O)n2C)c1cccc(C(F)F)c1F (single isomer, unassigned) [Example 56-1]"
7,271,"C[C@@H](Nc1ncnc2c1cc(C1(C#N)CCS(=O)(=NC3CC3)CC1)c(=O)n2C)c1cccc(C(F)F)c1F (single isomer, unassigned) [Example 58]"
8,53.6,C[C@@H](Nc1ncnc2c1cc(C1(F)CCS(=O)(=O)C1)c(=O)n2C)c1cccc(C(F)F)c1F (some centres unmarked) [Example 29-12]
9,94,"COC1(c2cc3c(N[C@H](C)c4cccc(C(F)F)c4F)ncnc3n(C)c2=O)CCS(=O)(=NC2CC2)CC1 (single isomer, unassigned) [Example 69]"
10,100,COC1(c2cc3c(C[C@H](C)c4cccc(C(F)F)c4F)ncnc3n(C)c2=O)CC2(C1)CS(=O)(=NC1CC1)C2 (some centres unmarked) [Example 68-3]
11,28.8,"C[C@@H](Nc1ncnc2c1cc(C1(C#N)CCS(=O)(=NC3CC3)CC1)c(=O)n2C)c1cccc(C(F)F)c1F (stereo partly drawn) [Example 59, (1S,4s)-1-(cyclopropylimino)-4-(4-(((R)-1-(3-(difluoromethyl)-2-fluorophenyl)ethyl)amino)-8-methyl-7-oxo-7,8-dihydropyrido[2,3-d]pyrimidin-6-yl)hexahydro-1λ^6-thiopyran-4-carbonitrile 1-oxide]"
